The values below come from US10227331B2 (priority 2015, dated 2019).

Structures are written as SMILES.

Data set [1] deals with Klebsiella pneumoniae expressing VIM-1 (IHMA599644). The class given is cell-based. The conditions noted are these: with imipenem 1 μg/ml, 95% inhibition of bacterial growth. In a few lines:
(§1)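 Restoration of imipenem susceptibility (1 μg/ml imipenem) was judged by absorbance after 22–24 h at 35° C. Test compound was added to bacteria suspended 1:100 in 1.1× CAMHB from overnight blood-agar cultures.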

In data set [2] the test system is Escherichia coli expressing NDM-1 (CLB30005, CLB30016). Format: cell-based. The conditions noted are these: with imipenem 1 μg/ml, 95% inhibition of bacterial growth. A digest of the protocol:
as §1

Data set [3] deals with Serratia marcescens expressing IMP-1 (CL5741). The class given is cell-based. The conditions noted are these: with imipenem 1 μg/ml, 95% inhibition of bacterial growth. In a few lines:
as §1

The target of data set [4] is NDM-1 (Klebsiella pneumoniae, UniProt C7C422). In words: biochemical. Format: biochemical. The conditions noted are these: CCF2-FA substrate, 2 hours at 25° C; read-out: NDM-1 IC50. A digest of the protocol: (§2)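 IC50 values derive from 4-parameter fits of percent inhibition against inhibitor concentration on semi-log axes. Activity was monitored by fluorescence with the CCF2-FA substrate after a 2-hour, 25° C incubation of compound, enzyme and substrate.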
NDM-1, sequence (C7C422 whole entry, looked up, species assumed): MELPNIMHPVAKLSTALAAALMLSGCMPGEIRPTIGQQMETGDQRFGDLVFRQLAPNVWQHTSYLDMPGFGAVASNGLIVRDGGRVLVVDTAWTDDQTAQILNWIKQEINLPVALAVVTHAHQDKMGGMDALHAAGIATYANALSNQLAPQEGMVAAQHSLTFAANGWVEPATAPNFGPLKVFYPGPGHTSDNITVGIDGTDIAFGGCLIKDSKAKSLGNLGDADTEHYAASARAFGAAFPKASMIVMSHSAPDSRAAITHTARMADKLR

Data set [5] has as its target IMP-1 (Serratia marcescens, UniProt P52699). In words: biochemical. Format: biochemical. The conditions noted are these: CCF2-FA substrate, 2 hours at 25° C; read-out: IMP-1 IC50. In a few lines:
as §2

Data set [6] has as its target VIM-1 (Pseudomonas aeruginosa (strain ATCC 15692 / DSM 22644 / CIP 104116 / JCM 14847 / LMG 12228 / 1C / PRS 101 / PAO1), UniProt A0A0F7KYQ8). Briefly: biochemical. The conditions noted are these: CCF2-FA substrate, 2 hours at 25° C. A digest of the protocol:
as §2

In data set [7] the test system is P. aeruginosa expressing IMP-1, efflux+ (MB9798). Format: cell-based, Pseudomonas aeruginosa. The conditions noted are these: for P. aeruginosa expressing IMP-1, efflux+ (MB9798) MITC95: imipenem at 2 μg/mL, in the presence of a class A, C, D serine β-lactamase inhibitor closely related to relebactam; for Efflux ratio: ratio MITC95 PA_9798/MITC95 PA_9799. The text has this: (§3) The strain background is Pseudomonas aeruginosa PAO1.

In data set [8] the test system is P. aeruginosa expressing IMP-1, efflux− (MB9799). In words: Efflux: concentration of MBL inhibitor which restores susceptibility to imipenem. Format: cell-based, Pseudomonas aeruginosa. The conditions noted are these: imipenem at 2 μg/mL, in the presence of a class A, C, D serine β-lactamase inhibitor closely related to relebactam.
Excerpt: as §3

IMP-1, sequence (P52699 whole entry, looked up, species assumed): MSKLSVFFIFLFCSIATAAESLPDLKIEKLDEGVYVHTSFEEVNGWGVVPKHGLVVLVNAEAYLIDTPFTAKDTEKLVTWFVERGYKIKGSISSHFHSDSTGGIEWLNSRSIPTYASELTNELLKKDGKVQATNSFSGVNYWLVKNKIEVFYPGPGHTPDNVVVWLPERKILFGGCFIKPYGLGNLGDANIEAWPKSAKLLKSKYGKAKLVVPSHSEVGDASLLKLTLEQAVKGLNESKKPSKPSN

`NCCS(=O)(=O)c1ccc(-c2cccc3sc(NC(N)=O)nc23)c(-c2nn[nH]n2)c1S(N)(=O)=O` [Example 85, 6-(2-aminoethylsulfonyl)-2-(2H-tetrazol-5-yl)-3-(2-ureidobenzo[d]thiazol-4-yl)benzenesulfonamide]: in data set [1], the “Klebsiella pneumoniae expressing VIM-1 (IHMA599644) MITC95” value is 1.563 µM. The “Escherichia coli expressing NDM-1 (CLB30016) MITC95” value in data set [2] came out at 0.3906 µM. Further, the “Serratia marcescens expressing IMP-1 (CL5741) MITC95” value in data set [3] is 0.7813 µM. The IC50 in data set [4] amounted to 0.0511 nM; in data set [5] it was 0.144 nM; in data set [6], 0.0858 nM. In addition, the “P. aeruginosa expressing IMP-1, efflux+ (MB9798) MITC95” value in data set [7] is 1.563 µM. The Efflux ratio in data set [7] was determined as 2.00. Also, the “P. aeruginosa expressing IMP-1, efflux− (MB9799) MITC95” value in data set [8] amounted to 0.7813 µM.

Turning to `NCCN1CC(S(=O)(=O)c2ccc(-c3cccc4[nH]c(N)nc34)c(-c3nn[nH]n3)c2S(N)(=O)=O)C1` [Example 51, 3-(2-amino-1H-benzo[d]imidazol-4-yl)-6-(1-(2-aminoethyl)azetidin-3-ylsulfonyl)-2-(2H-tetrazol-5-yl)benzenesulfonamide], the “Klebsiella pneumoniae expressing VIM-1 (IHMA599644) MITC95” value in data set [1] worked out at 1.563 µM. Further, the “Escherichia coli expressing NDM-1 (CLB30016) MITC95” value in data set [2] is 0.3906 µM. The “Serratia marcescens expressing IMP-1 (CL5741) MITC95” value in data set [3] came out at 0.7813 µM. For the same molecule, the IC50 in data set [4] came out at 0.145 nM; in data set [5], 1.31 nM; in data set [6], 0.426 nM. In addition, the “P. aeruginosa expressing IMP-1, efflux+ (MB9798) MITC95” value in data set [7] was determined as 0.7813 µM. Also, in data set [7], the Efflux ratio came out at 1.00. In data set [8], the “P. aeruginosa expressing IMP-1, efflux− (MB9799) MITC95” value amounted to 0.7813 µM.

Take `NC[C@H](N)CS(=O)(=O)c1ccc(-c2cccc3[nH]c(N)nc23)c(-c2nnn[nH]2)c1S(N)(=O)=O` [Example 293, 3-(2-amino-1H-benzo[d]imidazol-4-yl)-6-((S)-2,3-diaminopropylsulfonyl)-2-(1H-tetrazol-5-yl)benzenesulfonamide]: in data set [1] (VIM-1 (IHMA599644)), the “Klebsiella pneumoniae MITC95” value stood at 1.563 µM. Moreover, in data set [2] (NDM-1 (CLB30016)), the “Escherichia coli MITC95” value was found to be 0.3906 µM. For the same molecule, in data set [3] (IMP-1 (CL5741)), the “Serratia marcescens MITC95” value stood at 1.563 µM. Also, the IC50 in data set [4] amounted to 0.157 nM; in data set [5], 1.31 nM; in data set [6], 0.465 nM. In addition, the “P. aeruginosa expressing IMP-1, efflux+ (MB9798) MITC95” value in data set [7] turned out to be 0.7813 µM. Besides, the Efflux ratio in data set [7] turned out to be 1.00. The “P. aeruginosa expressing IMP-1, efflux− (MB9799) MITC95” value in data set [8] amounted to 0.7813 µM.

Regarding `COc1cc(-c2ccc(S(=O)(=O)CCN)c(S(N)(=O)=O)c2-c2nnn[nH]2)cnc1N.O=C(O)C(F)(F)F` [Example 169, 2-((4-(6-amino-5-methoxypyridin-3-yl)-2-sulfamoyl-3-(1H-tetrazol-5-yl)phenyl)sulfonyl)ethanaminium 2,2,2-trifluoroacetate], in data set [1], the “Klebsiella pneumoniae expressing VIM-1 (IHMA599644) MITC95” value worked out at 6.25 µM. Further, the “Escherichia coli expressing NDM-1 (CLB30016) MITC95” value in data set [2] came out at 0.7813 µM. Also, the “Serratia marcescens expressing IMP-1 (CL5741) MITC95” value in data set [3] is 3.125 µM. Further, the concentration for half-maximal inhibition (IC50) in data set [4] came out at 6 nM; in data set [5], 5.27 nM; in data set [6], 1.03 nM. The “P. aeruginosa expressing IMP-1, efflux+ (MB9798) MITC95” value in data set [7] was found to be 25 µM. Besides, in data set [7], the Efflux ratio was determined as 15.99. Further, in data set [8], the “P. aeruginosa expressing IMP-1, efflux− (MB9799) MITC95” value is 1.563 µM.

For the molecule `CCOC(=O)Nc1nc2c(-c3ccc(S(=O)(=O)CCN)c(S(N)(=O)=O)c3-c3nn[nH]n3)cccc2s1` [Example 84, ethyl 4-(4-(2-aminoethylsulfonyl)-3-sulfamoyl-2-(2H-tetrazol-5-yl)phenyl)benzo[d]thiazol-2-ylcarbamate], in data set [1], the “Klebsiella pneumoniae expressing VIM-1 (IHMA599644) MITC95” value came to 3.125 µM. Also, the “Escherichia coli expressing NDM-1 (CLB30016) MITC95” value in data set [2] came to 1.563 µM. For the same molecule, the “Serratia marcescens expressing IMP-1 (CL5741) MITC95” value in data set [3] stood at 1.563 µM. Besides, the half-inhibitory concentration (IC50) in data set [4] stood at 0.0781 nM; in data set [5], 0.145 nM; in data set [6], 0.14 nM. Also, the “P. aeruginosa expressing IMP-1, efflux+ (MB9798) MITC95” value in data set [7] turned out to be 6.25 µM. Also, in data set [7], the Efflux ratio is 4.00. Besides, the “P. aeruginosa expressing IMP-1, efflux− (MB9799) MITC95” value in data set [8] is 1.563 µM.
